Molecular target: T1, human lipocalin-type prostaglandin D synthase (L-PGDS), wild type (Homo sapiens, UniProt P41222)
T1 construct: gene PTGDS; recombinant wild type, pNIC-CH vector, E. coli Rosetta 2 (DE3), Superdex 75 purified
T1 sequence (P41222 23-190): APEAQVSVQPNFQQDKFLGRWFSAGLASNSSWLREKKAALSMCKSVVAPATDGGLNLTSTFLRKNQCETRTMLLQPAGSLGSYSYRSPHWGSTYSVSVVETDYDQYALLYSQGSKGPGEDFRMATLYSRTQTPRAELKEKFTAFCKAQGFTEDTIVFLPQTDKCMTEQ
Test: ITC (reverse titration, L-PGDS into drug)
Conditions: read-out: Binding affinities and thermodynamic parameters / Kd^a
Source text: ITC (reverse titration, L-PGDS into drug) on human lipocalin-type prostaglandin D synthase (L-PGDS), wild type

Row | Compound | Kd [µM]
1 | CN(C)CCC(c1ccc(Cl)cc1)c1ccccn1 (centres unmarked) [CPM, Chlorpheniramine] | 5.7 ± 0.2
2 | O=c1n(CCCN2CCN(c3cccc(Cl)c3)CC2)nc2ccccn12 [TRD, Trazodone] | 6.5 ± 0.2

From PMC7300299, “Anticholinergic Drugs Interact With Neuroprotective Chaperone L-PGDS and Modulate Cytotoxicity of Aβ Amyloids” (Frontiers in Pharmacology, 2020)
